Where a name gives a salt, the structure may show the parent alone. Read-outs that look alike come from different tables or passages of the source.
Key:
[1] = Sphericity from SEM images (ImageJ); type: physicochemical; set-up: key: 1 = true sphere; closer to 1 = more spherical; mean of ≥5 particles
Description: In the present description, “spherulite” means a crystal aggregate (polycrystal) which has a radial or concentric thin layered structure and has a spherical outer shape. Whether the crystal obtained by the method of the present invention is a spherulite or not can be determined, for example, by observing the outer shape of the crystal using SEM. For example, it can be discriminated by cutting the crystal aggregate and observing the internal structure thereof using SEM. The sphericity of the spherulite obtained by the method of the present invention is usually 0.60 or more, preferably 0.70 or more, more preferably 0.80 or more, particularly preferably 0.90 or more, and most preferably 0.95 or more. The sphericity can be calculated by the following method.
When an image of particles taken by SEM is analyzed using image processing software ImageJ, a coordinate group representing the position of pixels forming the outline of a particle is obtained. The length of the coordinate group is defined as N, and one pixel coordinate of each outline is defined as p[i] (1≤i≤N). The angle between a straight line l(k) connecting two points p[k] and p[k+N/D] and a straight line m(k) connecting two points p[k+N/D] and p[k+2N/D] is defined as θ(k) (−180°<θ<180°) (1≤k≤N, 1≤D≤N). D corresponds to the number of partitions of the outline. When N/D is not a natural number, the value is defined as the quotient obtained by dividing N by D. By calculating this angle with k=1 to N, N pieces of θ value can be obtained.
When the particle is a true sphere, θ(k) is 360/D, and the closer the particle is to a true sphere, the closer θ(k) is to this value. The error between θ(k) and the true value 360/D is evaluated by the root-mean-square error (RMSE) of the following formula:
Using the RMSE value of when D is 10 (θ(k)=36°), the sphericity is defined by the following formula: […]
The sphericity is 1 in a true sphere, and the closer the particle is to a true sphere, the closer the sphericity is to 1. Meanwhile, the sphericity of an ellipse whose long axis is infinitely long is zero. The sphericity is measured for five or more particles to calculate the mean. This mean is defined as the sphericity of each sample (see FIGS. 42 and 43).

[2] = Particle size distribution (d50, sharpness index); type: physicochemical; set-up: key to sharpness index of the crystal thus obtained / sharpness index of the fine powders: calculated by formula from d10, d50, d90; 1.0 = most uniform particle size
Description: d10 in the present description is a value obtained from a particle size distribution analyzer, and represents a particle size of a particle corresponding to 10% of accumulation from the smaller particle side in the particle size distribution based on the volume.
d50 in the present description is a value obtained from a particle size distribution analyzer, and represents a particle size of a particle corresponding to 50% of accumulation from the smaller particle side in the particle size distribution based on the volume.
“Sharpness index” in the present description is an index representing the uniformity of a particle size of a particle in a powder, and a sharpness index of 1.0 represents a powder having the most uniform particle size. The closer the sharpness index is to 1.0, the more the particle size of the powder is uniform. Specifically, the sharpness index represents a value calculated using the following formula from the values of d10, d50, and d90 measured by a particle size distribution analyzer:
Images for measuring the number of particles were obtained by a scanner GT-X830 manufactured by SEIKO EPSON CORPORATION. The powder X-ray diffraction (XRD) was measured using a desktop X-ray diffraction device MiniFlex300 manufactured by Rigaku Corporation. […] The particle strength was measured using a particle hardness measuring device NEW GRANO manufactured by OKADA SEIKO CO., LTD. […] The purity of a compound was measured by a high performance liquid chromatograph (LC-20A) manufactured by Shimadzu Corporation.

[3] = SEM image analysis, mean of particles
[4] = dry particle size distribution, volume based
[5] = SEM image analysis, mean of particles, trihydrate
[6] = calculated from d10, d50, d90, trihydrate
[7] = dry particle size distribution, volume based, trihydrate

| SMILES | sphericity of the spherulite [1, 3] | sharpness index of the crystal thus obtained ([2]; calculated from d10, d50, d90) | d50 of the crystal thus obtained [2, 4] | sphericity of the spherulite [1, 5] | sharpness index of the crystal thus obtained [2, 6] | d50 of the crystal thus obtained [2, 7] | other results |
| --- | --- | --- | --- | --- | --- | --- | --- |
| Cc1cccc(C)c1NC(=O)CC12CCCN1CCC2.Cl [Example 25, pilsicainide hydrochloride anhydride] | 0.69±0.18 | 2.29 | 116 μm | – | – | – | – |
| Nc1nc(CC(=O)Nc2ccc(CCNC[C@H](O)c3ccccc3)cc2)cs1 [Example 27, mirabegron] | 0.98±0.01 | 1.66 | 148 μm | – | – | – | – |
| COc1ccc2[n-]c([S@@+]([O-])Cc3ncc(C)c(OC)c3C)nc2c1.COc1ccc2[n-]c([S@@+]([O-])Cc3ncc(C)c(OC)c3C)nc2c1.O.O.O.[Mg+2] [Example 10(2), esomeprazole magnesium trihydrate] | – | – | – | 0.80±0.05 | 1.48 | 9.6 μm | sphericity of the non-spherulite ([1]; non-spherulite crystals, trihydrate): 0.50±0.06; d50 ([2]; samples of filtration test (Table 7), trihydrate): 9.6 μm |
| COc1ccc2[n-]c([S@@+]([O-])Cc3ncc(C)c(OC)c3C)nc2c1.COc1ccc2[n-]c([S@@+]([O-])Cc3ncc(C)c(OC)c3C)nc2c1.O.O.O.[Mg+2] [Example 7, esomeprazole magnesium trihydrate] | – | – | – | 0.97±0.01 | 1.40 | 189 μm | – |
| COc1ccc2[n-]c([S@@+]([O-])Cc3ncc(C)c(OC)c3C)nc2c1.COc1ccc2[n-]c([S@@+]([O-])Cc3ncc(C)c(OC)c3C)nc2c1.O.O.O.[Mg+2] [Example 2, esomeprazole magnesium trihydrate] | – | – | – | 0.95±0.03 | 2.5 | 56.1 μm | sharpness index of the fine powders ([2]; after centrifugal classification and sieving): 1.3; d50 of the fine powders ([2]; after centrifugal classification and sieving (on 390 M, 38 μm)): 54.6 μm |
| CN(C)CCC[C@@]1(c2ccc(F)cc2)OCc2cc(C#N)ccc21 [Example 19, escitalopram oxalate] | 0.98±0.01 | 4.87 | 50.7 μm | – | – | – | – |
| CC[C@H]1OC(=O)[C@H](C)[C@@H](O[C@H]2C[C@@](C)(OC)[C@@H](O)[C@H](C)O2)[C@H](C)[C@@H](O[C@@H]2O[C@H](C)C[C@H](N(C)C)[C@H]2O)[C@](C)(O)C[C@@H](C)CN(C)[C@H](C)[C@@H](O)[C@]1(C)O [Example 12, azithromycin monohydrate] | 0.89±0.02 | 1.5 | 75 μm | – | – | – | – |
| CNCC[C@H](Oc1cccc2ccccc12)c1cccs1 [Example 15, duloxetine hydrochloride] | – | – | – | – | – | – | sphericity of the spherulite [1]: 0.92±0.07; d50 of the crystal thus obtained [2]: 138 μm; sharpness index of the crystal thus obtained [2]: 4.7 |
| O=C(O)CCCN1CCC(O[C@@H](c2ccc(Cl)cc2)c2ccccn2)CC1.O=S(=O)(O)c1ccccc1 [Example 30, bepotastine besilate] | 0.98±0.01 | 2.15 | 105 μm | – | – | – | – |
| N[C@@H](CCC(=O)N[C@@H](CS)C(=O)NCC(=O)O)C(=O)O [Example 23, glutathione] | 0.85±0.07 | 2.27 | 48.4 μm | – | – | – | – |

— patent publication US20210391038A1, “SPECIFICALLY-SHAPED CRYSTAL OF COMPOUND AND METHOD FOR PRODUCING SAME” (TOWA PHARMACEUTICAL CO., LTD., priority 2018, published 2021)
